Where two headings read alike, the source gives them in different places.
How the values were obtained:
rat orexin 1 receptor = rat orexin 1 receptor (Rattus norvegicus, UniProt P56718); experiment: Rat orexin 1 receptor radioligand binding; conditions: read-out: rOX1 Ki
Procedure, shortened: (§1)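 Competition binding with the tritiated thiazolyl-pyrrolidinyl-methanone radioligand in PBS on homogenized rat or human OX1R-expressing cell suspensions, ≤0.1% DMSO; nonspecific binding defined with 10 μM almorexant. Bound radioactivity read by scintillation after filtration; IC50 from one-site competition fit, converted to Ki using pre-determined radioligand Kd.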

human orexin 2 receptor = human orexin 2 receptor (Homo sapiens (Human), UniProt O43614); experiment: Human orexin 2 receptor radioligand binding; conditions: read-out: hOX2 Ki
human orexin 2 receptor, sequence (O43614 whole entry): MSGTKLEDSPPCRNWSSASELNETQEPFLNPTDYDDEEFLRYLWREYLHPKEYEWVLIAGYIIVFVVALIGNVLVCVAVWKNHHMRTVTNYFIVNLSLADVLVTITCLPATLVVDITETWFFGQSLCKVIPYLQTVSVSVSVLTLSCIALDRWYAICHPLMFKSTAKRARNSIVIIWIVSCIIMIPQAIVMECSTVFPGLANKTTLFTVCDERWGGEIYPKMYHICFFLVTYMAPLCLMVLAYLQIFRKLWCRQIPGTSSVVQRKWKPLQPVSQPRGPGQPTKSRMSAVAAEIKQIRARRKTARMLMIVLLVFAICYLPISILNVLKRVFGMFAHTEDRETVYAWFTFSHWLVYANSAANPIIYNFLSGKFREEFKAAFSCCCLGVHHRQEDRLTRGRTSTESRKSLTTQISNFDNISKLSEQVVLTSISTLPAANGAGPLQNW
Procedure, shortened: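 HEK293 cells stably expressing human OX2 receptor, homogenized, incubated with [3H]-EMPA and compounds (DMSO ≤0.1%); nonspecific binding with 10 μM almorexant. Filter-bound radioactivity counted by scintillation; IC50 from one-site competition fit of triplicates, Ki from IC50 and predetermined radioligand Kd, averaged over 2-20 runs.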

human orexin 1 receptor = human orexin 1 receptor (Homo sapiens, UniProt O43613); experiment: Human orexin 1 receptor radioligand binding; conditions: read-out: hOX1 Ki
Procedure, shortened: as §1

[1] = rat orexin 1 receptor, averages of 2-20 runs
[2] = human orexin 2 receptor, averages of 2-20 runs
[3] = human orexin 1 receptor, averages of 2-20 runs

| Compound | Ki (rat orexin 1 receptor; [1]) | Ki (human orexin 2 receptor; [2]) | Ki (human orexin 1 receptor; [3]) | Ki (rat orexin 1 receptor) | Ki (human orexin 2 receptor) | Ki (human orexin 1 receptor) |
| --- | --- | --- | --- | --- | --- | --- |
| Cc1noc(-c2cc(F)ccc2C(=O)N2C[C@H]3C[C@@H](Oc4ccc(C(F)(F)F)cn4)[C@@H]2C3)n1 [Example 291, (4-fluoro-2-(3-methyl-1,2,4-oxadiazol-5-yl)phenyl)((1S,4R,6R)-6-((5-(trifluoromethyl)pyridin-2-yl)oxy)-2-azabicyclo[2.2.1]heptan-2-yl)methanone] | 43 nM | 4200 nM | 82 nM |  |  |  |
| O=C(c1c(F)cccc1-c1ncco1)N1C[C@H]2C[C@@H](Oc3ccc(C(F)(F)F)cn3)[C@@H]1C2 [Example 292, (2-fluoro-6-(oxazol-2-yl)phenyl)((1S,4R,6R)-6-((5-(trifluoromethyl)pyridin-2-yl)oxy)-2-azabicyclo[2.2.1]heptan-2-yl)methanone] | 19 nM | 673 nM | 40 nM |  |  |  |
| (3-fluoro-2-(pyrimidin-2-yl)phenyl)((1S,4R,6R)-6-((5-(trifluoromethyl)pyrazin-2-yl)amino)-2-azabicyclo[2.2.2]octan-2-yl)methanone [Example 80] | 9 nM | 456 nM | 7 nM |  |  |  |
| ((1S,4S,6R)-6-((5-chloropyrimidin-2-yl)amino)-2-azabicyclo[2.2.1]heptan-2-yl)(2-(5-fluoropyrimidin-2-yl)phenyl)methanone [Example 241] |  |  |  | 21 nM | 971 nM | 12 nM |
| ((1S,4S,6R)-6-((5-chloropyrimidin-2-yl)amino)-2-azabicyclo[2.2.1]heptan-2-yl)(5-fluoro-2-(pyrimidin-2-yl)phenyl)methanone [Example 238] | 20 nM |  | 8 nM |  | 991 nM |  |

The next lines start with results.

| Ki (rat orexin 1 receptor; [1]) | Ki (human orexin 2 receptor; [2]) | Ki (human orexin 1 receptor; [3]) | Compound | Ki (rat orexin 1 receptor) | Ki (human orexin 2 receptor) | Ki (human orexin 1 receptor) |
| --- | --- | --- | --- | --- | --- | --- |
| 16 nM | 535 nM | 26 nM | O=C(c1cc(F)ccc1-c1ncco1)N1C[C@H]2C[C@@H](Oc3ccc(C(F)(F)F)cn3)[C@@H]1C2 [Example 293] |  |  |  |
| 166 nM | 1400 nM | 580 nM | Cc1cnc(C(=O)N2C[C@H]3C[C@@H](Oc4ccc(C(F)(F)F)cn4)[C@@H]2C3)c(-n2ccnn2)c1 [Example 294] |  |  |  |
| 19 nM | 5800 nM | 34 nM | COc1ccc(C(=O)N2C[C@H]3C[C@@H](Oc4ccc(C(F)(F)F)cn4)[C@@H]2C3)c(-c2ncccn2)c1 [Example 295] |  |  |  |
| 8 nM | 474 nM | 14 nM | O=C(c1ncccc1-c1ncccn1)N1C[C@H]2C[C@@H](Oc3ccc(C(F)(F)F)cn3)[C@@H]1C2 [Example 296] |  |  |  |
| 10 nM | 606 nM | 10 nM | O=C(c1ccccc1-c1ncccn1)N1C[C@H]2C[C@@H](Oc3ccc(C(F)(F)F)cn3)[C@@H]1C2 [Example 297] |  |  |  |
| 24 nM | > 10000 nM | 29 nM | Cc1cnc(C(=O)N2C[C@H]3C[C@@H](Oc4ccc(C(F)(F)F)cn4)[C@@H]2C3)c(-c2ncccn2)c1 [Example 298] |  |  |  |
| 92 nM | 3700 nM | 112 nM | O=C(c1ccccc1-n1nccn1)N1C[C@H]2C[C@@H](Oc3ncc(Cl)cn3)[C@@H]1C2 [Example 300] |  |  |  |

Reference: patent US9611277B2 (Janssen Pharmaceutica NV, priority 2013, dated 2017)
